Test results reported in ChEMBL document CHEMBL4145665, “Structure-Activity Relationship of Novel and Selective Biaryl-Chroman GPR40 AgoPAMs” (ACS Med Chem Lett, 2018).
pEC50: −log10 of the molar value.

Assays:
Format in all cases: functional, cell-based
[1] = target: T1, Free fatty acid receptor 1 (Homo sapiens, UniProt O14842); assay: Agonist activity at recombinant human GPR40 expressed in HEK293 cells assessed as increase in IP1 accumulation measured after 60 mins in presence of 100% human serum by HTRF assay relative to AM-1638
T1 sequence (O14842 whole entry): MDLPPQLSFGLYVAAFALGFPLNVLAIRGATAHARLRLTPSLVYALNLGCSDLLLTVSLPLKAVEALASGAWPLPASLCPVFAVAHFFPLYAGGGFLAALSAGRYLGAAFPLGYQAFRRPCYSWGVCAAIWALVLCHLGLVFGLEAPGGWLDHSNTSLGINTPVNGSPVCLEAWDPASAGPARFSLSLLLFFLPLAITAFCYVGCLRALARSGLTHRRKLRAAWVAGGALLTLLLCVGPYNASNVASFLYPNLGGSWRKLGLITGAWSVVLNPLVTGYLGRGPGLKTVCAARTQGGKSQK

[2] = target: T1, Free fatty acid receptor 1; assay: Agonist activity at recombinant human GPR40 expressed in HEK293 cells assessed as increase in IP1 accumulation measured after 60 mins by HTRF assay relative to AM-1638
[3] = target: T1, Free fatty acid receptor 1; assay: Agonist activity at recombinant human GPR40 expressed in HEK293 cells assessed as increase in IP1 accumulation measured after 60 mins in presence of 100% human serum by HTRF assay

| max activation [1] | max activation [2] | pEC50 [3] | Structure (SMILES) |
| --- | --- | --- | --- |
| 224% | 460% | 5.92 | COc1cc(-c2ccc(C3CCc4ccc([C@@H](CC(=O)O)C5CC5)cc4O3)cc2)c(F)cn1 (some centres undefined) |
| 229% | 401% | 5.59 | COc1cc(-c2ccc(C3CCc4ccc([C@@H](CC(=O)O)C5CC5)cc4O3)cc2)ccn1 (mixture of isomers) |
| 144% | 500% | 5.29 | CSc1cccc(-c2ccc(C3CCc4ccc([C@@H](CC(=O)O)C5CC5)cc4O3)cc2)c1 (mixture of isomers) |
| 2.4% | 535% | < 5.00 | COc1cccc(-c2ccc(C3CCc4ccc([C@@H](CC(=O)O)C5CC5)cc4O3)cc2)n1 (mixture of isomers) |
| > 179% | > 179% | – | COc1ccc(F)c(-c2ccc(C3CCc4ccc([C@H](C5CC5)[C@H](C)C(=O)O)cc4O3)nc2)c1 (stereo in doubt; 17) |
| > 179% | > 179% | – | COc1ccc(F)c(-c2ccc(C3CCc4ccc([C@H](C5CC5)[C@H](C)C(=O)O)cc4O3)cn2)c1 (stereo in doubt; 18) |
| > 179% | > 179% | – | COc1ccc(F)c(-c2ccc(C3CCc4ccc([C@H](C5CC5)[C@H](C)C(=O)O)cc4O3)cn2)c1 (stereo in doubt; 19) |
| > 179% | > 179% | – | COc1cc(-c2ccc(C3CCc4ccc([C@H](C5CC5)[C@H](C)C(=O)O)cc4O3)cc2)c(F)cn1 (stereo in doubt; 20) |
| > 179% | > 179% | – | COc1cc(-c2ccc(C3CCc4ccc([C@H](C5CC5)[C@H](C)C(=O)O)cc4O3)cc2)c(F)cn1 (stereo in doubt; 21) |
| > 179% | > 179% | – | COc1cc(-c2ccc(C3CCc4ccc([C@H](C5CC5)[C@H](C)C(=O)O)cc4O3)nc2)c(F)cn1 (stereo in doubt; 28) |

| Structure (SMILES) | max activation [1] | max activation [2] | pEC50 [3] |
| --- | --- | --- | --- |
| COc1ccc(F)c(-c2ccc(C3CCc4ccc([C@H](C5CC5)[C@H](C)C(=O)O)cc4O3)cc2)c1 (stereo in doubt; 15) | > 179% | > 179% | – |
| COc1cc(-c2ccc(C3CCc4ccc([C@H](C5CC5)[C@H](C)C(=O)O)cc4O3)cc2)ccn1 (stereo in doubt; 22) | > 179% | > 179% | – |
| COc1cc(-c2ccc(C3CCc4ccc([C@H](C5CC5)[C@H](C)C(=O)O)cc4O3)cc2)ccn1 (stereo in doubt; 23) | > 179% | > 179% | – |
| COc1cc(-c2ccc(C3CCc4ccc([C@H](C5CC5)[C@H](C)C(=O)O)cc4O3)c(F)c2)c(F)cn1 (stereo in doubt; 26) | > 179% | > 179% | – |
| COc1cc(-c2ccc(C3CCc4ccc([C@H](C5CC5)[C@H](C)C(=O)O)cc4O3)c(F)c2)c(F)cn1 (stereo in doubt; 27) | > 179% | > 179% | – |
| COc1cc(-c2cnc(C3CCc4ccc([C@H](C5CC5)[C@H](C)C(=O)O)cc4O3)c(F)c2)c(F)cn1 (stereo in doubt; 30) | > 179% | > 179% | – |
| COc1cc(-c2cnc(C3CCc4ccc([C@H](C5CC5)[C@H](C)C(=O)O)cc4O3)c(F)c2)c(F)cn1 (stereo in doubt; 31) [listing 1 of 2 here] | – | – | 6.12 |
| COc1cc(-c2cnc(C3CCc4ccc([C@H](C5CC5)[C@H](C)C(=O)O)cc4O3)c(F)c2)c(F)cn1 (stereo in doubt; 31) [listing 2 of 2 here] | > 179% | > 179% | – |
| COc1cc(-c2ccc(C3CCc4ccc([C@H](C5CC5)[C@H](C)C(=O)O)cc4O3)nc2)ccn1 (stereo in doubt; 32) | > 179% | > 179% | – |
| COc1cc(-c2ccc(C3CCc4ccc([C@H](C5CC5)[C@H](C)C(=O)O)cc4O3)nc2)ccn1 (stereo in doubt; 33) [listing 1 of 2 here] | – | – | 6.34 |
| COc1cc(-c2ccc(C3CCc4ccc([C@H](C5CC5)[C@H](C)C(=O)O)cc4O3)nc2)ccn1 (stereo in doubt; 33) [listing 2 of 2 here] | > 179% | > 179% | – |
